# Columns and labels:
# Format in all cases: cell-based, human
# [1] = test system: CD8+ T-cells from HLA A2+ healthy donors; assay: Priming of CD8+ T-cells from healthy donors, tetramer staining; settings: three healthy donors, tetramers, compared to WT peptides
# Description: To generate T-cell peptide lines, CD8 T-cells were purified from the PBMCs of HLA A2+ donors using CD8 microbeads according to the manufacturer's instructions (Miltenyi Biotech, Bergisch Gladbach, Germany). Purified CD8 cells (3×10^6) were co-incubated with autologous CD8neg cells (6-8×10^6) in 24 well plates in 2 mL of T-cell media, but with no IL-15. 25 μM of each peptide was used. The cultures had 50% of the media changed thrice weekly. Tetramer staining was performed as above, using 500,000 cells per tube. Each T-cell line was used in an IFNγ enzyme linked immunosorbent spot (ELISpot) assay with cell lines MDA-MB-231, melanoma MM909.24 and Saos-2. 50,000 T-cells and 15,000 cancer cells were used per well. Incubation was performed for 48 h, and the assay developed according the manufacturer's instructions (Mabtech, Nacka Strand, Sweden).
# CPL assay of CR24 was performed as described above. Candidate peptide agonists were designed using the CR24 CPL and an online algorithm (wsb.warwick.ac.uk/wsbcToolsWebpage/user_cases.php). Priming of CD8 T-cells from healthy donors, tetramer staining and chromium release cytotoxicity assays were performed as described above.
# [2] = test system: autologous melanoma cells; assay: Chromium release cytotoxicity assay of peptide primed T-cell lines; settings: patient 37; compared to WT Melan A peptide primed T-cells
# [3] = test system: CD8 T-cells from a renal cell carcinoma (RCC) and chronic lymphocytic leukaemia (CLL) patient; assay: Priming of CD8 T-cells from RCC and CLL patients, TAPI-0 assay or tetramer staining; settings: primed 28 days
# From the text: (§1) (FIG. 14A) CD8 T-cells from a renal cell carcinoma (RCC) and chronic lymphocytic leukaemia (CLL) patient were left unprimed or primed with […] (SEQ ID NO: 80) peptide for 28 days. […] (SEQ ID NO: 80) peptide for 28 days.
# autologous cancer cells = assay: Killing of autologous cancer cells by primed CD8s (RCC and CLL patient); settings: compared to unprimed T-cells
# From the text: as §1
# [4] = test system: CD8 T-cells from an acute myeloid leukaemia (AML) patient and two CLL patients; assay: Priming of CD8 T-cells from AML and CLL patients, IMP-2 tetramer; settings: primed 28 days, versus unprimed
# CLL cells = assay: Killing assay with primed T-cells from CLL patient 3; settings: compared to IMP-2 primed CD8s
# From the text: as §1
Sequence,"priming of Melan A, BST2 and IMP2 T-cells [1]","priming of Melan A, BST2 and IMP2 T-cells ([1]; listed as MTSAIGVLVP)",lysis of autologous melanoma cells by primed T-cells [2],MTSAIGILPV specific T-cells after priming [3],killing of autologous cancer cells by primed CD8s (autologous cancer cells),proportion of IMP-2 specific T-cells after priming [4],killing of CLL cells by primed T-cells (CLL cells)
ITSAIGILPV (listed as Homo sapiens) [APL 2],exhibiting effect across each donor,,,,,,
MTSAIGILPV (listed as Homo sapiens) [APL 5],most effective super-agonist,most effective of the candidate super-agonists at priming,superior lysis,presence,killed more autologous cancer cells than the unprimed T-cells,induced a greater proportion of IMP-2 cells,killed more CLL cells than the IMP-2 primed CD8s

# From patent US12053513B2, “Cancer-specific T-cell receptors” (UNIVERSITY COLLEGE CARDIFF CONSULTANTS LTD., priority 2018, dated 2024)
